In brackets after ≈: the same amount, converted by molar mass.
Columns and labels:
Homo sapiens = assay: Plasma concentration in human at 7.5 mg/kg; assay type: ADME, organism-based; design: dose 7.5 mg/kg; details: in vivo
Streptococcus pneumoniae [1] = assay: Antibacterial activity against penicillin-resistant Streptococcus pneumoniae after 20 to 24 hrs by broth microdilution method; assay type: functional
Streptococcus pneumoniae [2] = assay: Antibacterial activity against penicillin-intermediate Streptococcus pneumoniae after 20 to 24 hrs by broth microdilution method; assay type: functional
Streptococcus pneumoniae [3] = assay: Antibacterial activity against penicillin-susceptible Streptococcus pneumoniae after 20 to 24 hrs by broth microdilution method; assay type: functional
Streptococcus viridans = assay: Antimicrobial activity against Streptococcus viridans after 20 to 24 hrs by broth microdilution method; assay type: functional
[4] = test system: Streptococcus sp. 'group B'; assay: Antimicrobial activity against Streptococcus group B after 20 to 24 hrs by broth microdilution method; assay type: functional
Staphylococcus [5] = assay: Antimicrobial activity against methicillin-resistant coagulase-negative Staphylococcus after 20 to 24 hrs by broth microdilution method; assay type: functional
Enterococcus faecalis [6] = assay: Antimicrobial activity against vancomycin-susceptible Enterococcus faecalis after 20 to 24 hrs by broth microdilution method; assay type: functional
[7] = test system: Streptococcus sp. 'group A'; assay: Antimicrobial activity against Streptococcus group A after 20 to 24 hrs by broth microdilution method; assay type: functional
Staphylococcus aureus [8] = assay: Antimicrobial activity against methicillin-susceptible Staphylococcus aureus after 20 to 24 hrs by broth microdilution method; assay type: functional
Staphylococcus aureus [9] = assay: Antimicrobial activity against methicillin-resistant Staphylococcus aureus after 20 to 24 hrs by broth microdilution method; assay type: functional
Enterococcus faecium [10] = assay: Antibacterial activity against vancomycin-susceptible Enterococcus faecium after 20 to 24 hrs by broth microdilution method; assay type: functional
Staphylococcus [11] = assay: Antimicrobial activity against methicillin-susceptible coagulase-negative Staphylococcus after 20 to 24 hrs by broth microdilution method; assay type: functional
[12] = Protein binding in human plasma; assay type: ADME, cell-free; details: read-out: PB (converted)
Enterococcus faecalis [13] = assay: Antimicrobial activity against vancomycin-resistant Enterococcus faecalis after 20 to 24 hrs by broth microdilution method; assay type: functional
Enterococcus faecium [14] = assay: Antibacterial activity against vancomycin-resistant Enterococcus faecium after 20 to 24 hrs by broth microdilution method; assay type: functional

`CCCCCCCCCCNCCN[C@@]1(C)C[C@H](O[C@H]2[C@H](Oc3c4cc5cc3Oc3ccc(cc3Cl)[C@@H](O)[C@@H](NC(=O)[C@@H](CC(C)C)NC)C(=O)N[C@@H](CC(N)=O)C(=O)N[C@H]5C(=O)N[C@H]3C(=O)N[C@H](C(=O)N[C@H](C(=O)O)c5cc(O)c(CNCP(=O)(O)O)c(O)c5-c5cc3ccc5O)[C@H](O)c3ccc(c(Cl)c3)O4)O[C@H](CO)[C@@H](O)[C@@H]2O)O[C@@H](C)[C@H]1O` [TELAVANCIN] showed a Cp (Homo sapiens) of 96.7 µg/mL, an MIC (Streptococcus pneumoniae [1]) of 0.015 µg/mL (≈ 0.00854 µM) and an MIC50 (Streptococcus pneumoniae [1]) of 0.015 µg/mL (≈ 0.00854 µM). The MIC90 (Streptococcus pneumoniae [1]) was 0.03 µg/mL (≈ 0.0171 µM), the MIC50 (Streptococcus pneumoniae [2]) was 0.015 µg/mL (≈ 0.00854 µM) and the MIC90 (Streptococcus pneumoniae [2]) was 0.03 µg/mL (≈ 0.0171 µM). It also gave an MIC50 (Streptococcus pneumoniae [3]) of 0.015 µg/mL (≈ 0.00854 µM), an MIC90 (Streptococcus pneumoniae [3]) of 0.03 µg/mL (≈ 0.0171 µM) and an MIC50 (Streptococcus viridans) of 0.06 µg/mL (≈ 0.0342 µM). The MIC90 (Streptococcus viridans) was 0.06 µg/mL (≈ 0.0342 µM), the MIC50 [4] was 0.06 µg/mL (≈ 0.0342 µM) and the MIC90 [4] was 0.06 µg/mL (≈ 0.0342 µM). It also gave an MIC50 (Staphylococcus [5]) of 0.25 µg/mL (≈ 0.142 µM), an MIC90 (Staphylococcus [5]) of 0.25 µg/mL (≈ 0.142 µM) and an MIC50 (Enterococcus faecalis [6]) of 0.25 µg/mL (≈ 0.142 µM). For the same compound, the MIC90 (Enterococcus faecalis [6]) was 0.5 µg/mL (≈ 0.285 µM), the MIC [7] was 0.03 µg/mL (≈ 0.0171 µM) and the MIC50 [7] was 0.03 µg/mL (≈ 0.0171 µM). It also gave an MIC90 [7] of 0.06 µg/mL (≈ 0.0342 µM), an MIC50 (Staphylococcus aureus [8]) of 0.25 µg/mL (≈ 0.142 µM) and an MIC90 (Staphylococcus aureus [8]) of 0.25 µg/mL (≈ 0.142 µM). For the same compound, the MIC50 (Staphylococcus aureus [9]) was 0.25 µg/mL (≈ 0.142 µM), the MIC90 (Staphylococcus aureus [9]) was 0.25 µg/mL (≈ 0.142 µM) and the MIC50 (Enterococcus faecium [10]) was 0.12 µg/mL (≈ 0.0684 µM). For the same compound, the MIC90 (Enterococcus faecium [10]) was 0.25 µg/mL (≈ 0.142 µM), the MIC50 (Staphylococcus [11]) was 0.25 µg/mL (≈ 0.142 µM) and the MIC90 (Staphylococcus [11]) was 0.25 µg/mL (≈ 0.142 µM). The fraction unbound [12] was 0.1, the MIC50 (Enterococcus faecalis [13]) was 4 µg/mL (≈ 2.28 µM) and the MIC90 (Enterococcus faecalis [13]) was 8 µg/mL (≈ 4.56 µM). For the same compound, the MIC50 (Enterococcus faecium [14]) was 1 µg/mL (≈ 0.57 µM) and the MIC90 (Enterococcus faecium [14]) was 2 µg/mL (≈ 1.14 µM).

With `CN[C@H](CC(C)C)C(=O)N[C@H]1C(=O)N[C@@H](CC(N)=O)C(=O)N[C@H]2C(=O)N[C@H]3C(=O)N[C@H](C(=O)N[C@H](C(=O)O)c4cc(O)cc(O)c4-c4cc3ccc4O)[C@H](O)c3ccc(c(Cl)c3)Oc3cc2cc(c3O[C@@H]2O[C@H](CO)[C@@H](O)[C@H](O)[C@H]2O[C@H]2C[C@](C)(N)[C@H](O)[C@H](C)O2)Oc2ccc(cc2Cl)[C@H]1O` [VANCOMYCIN] the MIC (Streptococcus pneumoniae [1]) was 0.25 µg/mL (≈ 0.173 µM), the MIC50 (Streptococcus pneumoniae [1]) was 0.25 µg/mL (≈ 0.173 µM) and the MIC90 (Streptococcus pneumoniae [1]) was 0.5 µg/mL (≈ 0.345 µM). It also gave an MIC (Streptococcus pneumoniae [2]) of 0.25 µg/mL (≈ 0.173 µM), an MIC50 (Streptococcus pneumoniae [2]) of 0.25 µg/mL (≈ 0.173 µM) and an MIC90 (Streptococcus pneumoniae [2]) of 0.5 µg/mL (≈ 0.345 µM). The MIC (Streptococcus pneumoniae [3]) was 0.25 µg/mL (≈ 0.173 µM), the MIC50 (Streptococcus pneumoniae [3]) was 0.25 µg/mL (≈ 0.173 µM) and the MIC90 (Streptococcus pneumoniae [3]) was 0.5 µg/mL (≈ 0.345 µM). The MIC50 (Streptococcus viridans) was 0.5 µg/mL (≈ 0.345 µM), the MIC90 (Streptococcus viridans) was 1 µg/mL (≈ 0.69 µM) and the MIC50 [4] was 0.5 µg/mL (≈ 0.345 µM). The MIC90 [4] was 0.5 µg/mL (≈ 0.345 µM), the MIC50 (Staphylococcus [5]) was 1 µg/mL (≈ 0.69 µM) and the MIC90 (Staphylococcus [5]) was 2 µg/mL (≈ 1.38 µM). It also gave an MIC50 (Enterococcus faecalis [6]) of 2 µg/mL (≈ 1.38 µM), an MIC90 (Enterococcus faecalis [6]) of 2 µg/mL (≈ 1.38 µM) and an MIC [7] of 0.25 µg/mL (≈ 0.173 µM). It also gave an MIC50 [7] of 0.25 µg/mL (≈ 0.173 µM), an MIC90 [7] of 0.5 µg/mL (≈ 0.345 µM) and an MIC50 (Staphylococcus aureus [8]) of 0.5 µg/mL (≈ 0.345 µM). It also gave an MIC90 (Staphylococcus aureus [8]) of 1 µg/mL (≈ 0.69 µM), an MIC50 (Staphylococcus aureus [9]) of 1 µg/mL (≈ 0.69 µM) and an MIC90 (Staphylococcus aureus [9]) of 1 µg/mL (≈ 0.69 µM). It also gave an MIC50 (Enterococcus faecium [10]) of 1 µg/mL (≈ 0.69 µM), an MIC90 (Enterococcus faecium [10]) of 1 µg/mL (≈ 0.69 µM) and an MIC50 (Staphylococcus [11]) of 1 µg/mL (≈ 0.69 µM). The MIC90 (Staphylococcus [11]) was 2 µg/mL (≈ 1.38 µM), the MIC50 (Enterococcus faecalis [13]) was 512 µg/mL (≈ 353 µM) and the MIC90 (Enterococcus faecalis [13]) was > 512 µg/mL. For the same compound, the MIC50 (Enterococcus faecium [14]) was 512 µg/mL (≈ 353 µM) and the MIC90 (Enterococcus faecium [14]) was 512 µg/mL (≈ 353 µM).

— ChEMBL document CHEMBL1154412, “In vitro activity of telavancin against gram-positive clinical isolates recently obtained in Europe” (Antimicrob Agents Chemother, 2007)
